[DAP] = 2,6-diaminopurine base replacing adenine; [I] = hypoxanthine (inosine)
Experiments:
rat model of asthma [1] = assay: Cellular influx into the lungs after antigen challenge (lung lavage differential cell count); assay type: in vivo; conditions: 200 μg intratracheal before ovalbumin challenge; for inhibition of recruitment of eosinophils: bronchoalveolar lavage after 15 hours
Protocol: (§1) Active sensitization of rats was performed by subcutaneous injection of 1 ml of saline containing 1 mg of chicken egg ovalbumin (OA) (Sigma, St. Louis, Mo.) and 3.5 mg of aluminum hydroxide gel (BDH Chemicals, Poole, UK).
On day 14 after sensitization with ovalbumin, after general anesthesia with 65 mg/Kg pentothal and endotracheal intubation, ovalbumin challenge is performed by injecting 200 micrograms of ovalbumin in 60 μl intratracheally. After 8 hours or 15 hours, the rats are again intubated after general anesthesia and a lung lavage consisting of 5 times 5 ml instillation of 0.9% saline is performed. Cells are washed, counted and centrifuged onto slides in a Cytospin III™. A differential cell count is performed.
On day 14, the rats were intubated after general anesthesia with pentothal (65 mg/kg) and received 200 μg of ASA4, ASA4-DAP (5′-DapCTCDapTDapTTCDapTDapGGGTG-3′; SEQ ID NO:27), AS141-DAP (5′-TGGCDapCTTTDapGGTGGCTG-3′; SEQ ID NO:29), mismatch AS141-DAP (5′-GTGCCDapTTTGDapGTGGCTG-3′; SEQ ID NO:30), combination of ASA4-DAP and AS141-DAP (total of 100 μg) or saline in 50 μl of 0.9% NaCl intratracheally. Twenty minutes later ovalbumin challenge is performed by injecting 200 μg of ovalbumin in 50 μl of 0.9% saline intratracheally. After 15 hours, the rats were again intubated after general anesthesia, and a lung lavage consisting of 5 times 5 ml instillation was performed. Cells were washed, counted and centrifuged onto slides in a Cytospin III™. A differential cell count was finally performed.

[2] = test system: sensitized Brown Norway rats; assay: Airway responsiveness (lung resistance) to intratracheal adenosine, DAP nucleoside and DAP analogs; assay type: in vivo, rat
Protocol: as §1
(§2) The equipment and methodology for measuring pulmonary resistance was as previously described (Renzi, P. M., et al. Am. Rev. Respir. Dis 146: 163-169, 1992). General anesthesia was induced with either pentothal (50 mg/kg) or urethane (1.1 g/kg) intra-peritoneally. Endo-tracheal intubation was then performed using a 6 cm length of PE-240™ polyethylene catheter. A heating pad was used to maintain constant body temperature and rectal temperature was monitored continuously with an electronic thermometer (Telethermometer™, Yellow Springs Instrument Co., Yellowsprings, Ohio). Lung resistance (RL) was measured during spontaneous tidal breathing with the animals in the lateral decubitus position. Flow was measured by placing the tip of the tracheal tube inside a small Plexiglass™ box (265 ml in volume). A Fleish™ No. 0 pneumotachograph coupled to a differential pressure transducer (MP-45+2 cm H20; Validyne Corp, Northridge, Calif.) was attached to the other end of the box to measure airflow, and volume was obtained by numerical integration of the flow signal. Changes in esophageal pressure were measured by using a saline-filled catheter and a differential pressure transducer (Sanborn 267 BC™; Hewlett Packard, Waltham, Mass.). The other port of the transducer was connected to the box. The esophageal catheter consisted of polyethylene tubing (PE-200™) 20-cm long attached to a shorter length (6 cm) of tubing (PE-100™). Transpulmonary pressure was computed as the difference between esophageal and box pressure. The airway response was evaluated from RL, which was determined by fitting the equation of motion of the lung by multiple linear regression using commercial software (RHT-Infodat Inc., Montreal, Quebec, Canada).
On day 14 post-sensitization, rats were anesthetized with pentothal (65 mg/kg), intubated, and baseline RL was measured. Rats were given incremental doses intratracheally of adenosine (CAS 58-61-7), 2,6-diaminopurine hemisulfate salt (CAS 69369-16-0), DAP (2-amino-2-deoxyadenosine; CAS 4546-70-7), 2-amino-9-(B-D-2′-deoxyribo furanosyl)purine (CAS 3616-24-8), 7-Deaza-2′deoxyadenosine (CAS 60129-59-1), N6-Methyl-2′-deoxyadenosine (CAS 2002-35-9), 2-aminoadenosine/2,6-diamunopurine riboside (CAS 2096-10-08) over the dose range of 0.125 μg to 100 μg in 50 μl of either saline or saline plus acetic acid. Immediately after each dose RL was measured. DAP was dissolved as follows: 3 mg of DAP was combined with 100 μl of acetic acid, adjusted to 1.5 to 3 ml by the addition of saline, and heated to 70° C. This gave a final concentration of 1 to 2 μg/μl. Dilutions were performed in the same buffer. Control animals received saline with acetic acid at the same final concentration as indicated.

[3] = test system: sensitized but unchallenged Brown Norway rats; assay: Cellular influx into the lungs after adenosine or DAP administration; assay type: in vivo, rat
Protocol: Fourteen days after sensitization, the rats were intubated after anesthesia with pentothal 65 mg/kg, and 100 μg of adenosine or 2-amino-2′-deoxyadenosine or of 2-amino-2′deoxyadenosine followed 10 minutes later by adenosine or of saline was injected intratracheally in 50 μl. Fifteen hours later, the rats were intubated after general anesthesia with pentothal, and a lung lavage was performed and the cells were counted as described above.
In another experiment, groups of six sensitized but unchallenged Brown Norway rats were anesthetized with pentothal and endotracheally intubated. The rats then received an intratracheal injection of either (1) saline (control), (2) 100 μg of adenosine, (3) 100 μg of 2-amino-2′-deoxyadenosine (DAP) or (4) 100 μg of DAP followed by 100 μg of adenosine 10 minutes later. The rats were awakened, re-anesthetized and intubated 15 hours later for a lung lavage. Cells that were present in media collected from the lavage, were counted and a differential was obtained on Cytospin∩ slides.

rat model of asthma [4] = assay: Leukotriene D4 responsiveness after antigen (ovalbumin) challenge; assay type: in vivo; conditions: 200 μg intratracheal, 15 hours after ovalbumin challenge; for airway responsiveness to leukotriene D4: vs control challenged and DAP mismatch treated rats
Protocol: as §1, §2
We have previously shown that the antisense ASA4 (5′-ACTCATATTC ATAGGGTG-3′; SEQ ID NO:26) directed against the rat CCR3 receptor was effective at inhibiting eosinophil influx into the lungs after antigen challenge (see WO 99/66037). We employed the same oligonucleotide sequences for these experiments. […] After 15 hours, the rats were again intubated after general anesthesia, baseline lung resistance measured and doubling concentrations of leukotriene D4 injected intratracheally (50 ng to 1600 ng) until baseline lung resistance doubled (EC200).

[5] = test system: common Beta chain of human GM-CSF, IL-3 and IL-5 receptor; assay: Semi-quantitative RT-PCR of common beta chain mRNA in U937 cells treated with antisense; assay type: cell-based; conditions: 10 μmol, six hours, compared to AS107
Protocol: Experiments were performed to assess whether antisense oligonucleotides described in international application WO 99/66037 (incorporated herein) directed against the common beta sub-unit of the IL-3, IL-5 and GM-CSF receptor, could inhibit the expression and the function of this receptor when modified by replacing adenosine by either 2-amino-2′-deoxyadenosine or inosine. TF-1 and U937 cells express high levels of GM-CSF receptors. In addition, TF-1 cells are dependent on GM-CSF for survival. These cells were cultured in RPMI 1640 supplemented with 10% heat-inactivated fetal calf serum, penicillin, streptomycin and 1-glutamine at 37° C. in 5% CO2 (the TF-1 cells were supplemented with GM-CSF). […] The sequence for 107A-DAP was: 5′-GGGTCTGCDapGCGGGDapTGGT-3′ (SEQ ID NO:21); the sequence for 107A-inosine (107A-I) was: 5′-GGGTCTGCIGCGGGIT GGT-3′ (SEQ ID NO:22). The cells were retrieved and washed 3 times. RNA was then retrieved and the presence of the beta chain of the receptor was assessed by semi-quantitative RT-PCR.

rat model of asthma [6] = conditions: see WO 99/66037; cited from earlier work
[7] = at 5 fold lower concentration (1 μg)
[8] = at peak adenosine toxicity (5 μg)
[9] = 100 μg intratracheal, lung lavage 15 hours later

For “5′-TGGCDapCTTTDapGGTGGCTG-3′ (antisense TGGCNCTTTNGGTGGCTG; diaminopurine (Dap) replaces adenosine at two places, sugar and backbone not given here, further chemistry not given here) [AS141-DAP]”, the macrophage recruitment (rat model of asthma [1]; lavage after 15 hours) was “significantly decreased” and the recruitment of eosinophils (rat model of asthma [1]; lavage after 15 hours) was “effectively inhibited”.

With `Nc1nc(N)c2ncn([C@H]3C[C@H](O)[C@@H](CO)O3)c2n1` [DAP, 2-amino-2-deoxyadenosine] the “relative toxicity ranking (lung resistance)” value (from here on “relative toxicity ranking”) [2, 7] was “adenosine>2 amino-2 deoxyadenosine/DAP>rest”, the “relative toxicity ranking” value [2, 8] was “adenosine>N6-Methyl-2′deoxyadenosine>rest including DAP” and the “effect on lung resistance (% baseline) after intratracheal dosing” value ([2]; incremental doses 0.125 μg to 100 μg intratracheal, sensitized rats) was “does not significantly increase lung resistance”. For the same molecule, the “inhibition of eosinophil recruitment induced by adenosine” value ([3]; 100 μg DAP followed by 100 μg adenosine 10 minutes later, lavage 15 hours later) was “completely inhibits the recruitment of eosinophils”.

With “5′-DapCTCDapTDapTTCDapTDapGGGTG-3′ (antisense NCTCNTNTTCNTNGGGTG; DNA, [DAP] at 1, 5, 7, 11, 13, all phosphorothioate, methylation of C not given here) [ASA4-DAP]” the “airway responsiveness to leukotriene D4, compared to unchallenged rats” value (rat model of asthma [4]) was “no different”, the “airway responsiveness to leukotriene D4, compared to unmodified ASA4” value (rat model of asthma [4]) was “tended to be more effective” and the “airway responsiveness to leukotriene D4” value (rat model of asthma [4]) was “significantly decreased”. The “inhibition of recruitment of eosinophils” value (rat model of asthma [1]) was 83%, the “decrease of lymphocyte recruitment” value (rat model of asthma [1]; lavage after 15 hours) was 74% and the macrophage recruitment (rat model of asthma [1]; lavage after 15 hours) was “tended to decrease”. The neutrophil recruitment (rat model of asthma [1]; lavage after 15 hours) was “tended to decrease”.

With `CNc1ncnc2c1ncn2[C@H]1C[C@H](O)[C@@H](CO)O1` [N6-Methyl-2′deoxyadenosine, N6-methyl-2′-deoxyadenosine] the “relative toxicity ranking” value [2, 8] was “adenosine>N6-Methyl-2′deoxyadenosine>rest including DAP”.

In the case of `Nc1ncnc2c1ncn2[C@@H]1O[C@H](CO)[C@@H](O)[C@H]1O` [adenosine, reference compound], the “relative toxicity ranking” value [2, 7] is reported as “adenosine>2 amino-2 deoxyadenosine/DAP>rest”, the “relative toxicity ranking” value [2, 8] is reported as “adenosine>N6-Methyl-2′deoxyadenosine>rest including DAP” and the “dose at which lung resistance peaks” value ([2]; incremental intratracheal doses, sensitized rats) is reported as 5 µg. The “effect on other cell types in lung lavage” value [3, 9] was “without significantly affecting other cell types” and the “increase of eosinophil recruitment into the lungs” value [3, 9] was “more than 10 fold”.

With “5′-GGGTCTGCIGCGGGIT GGT-3′ (DNA GGGTCTGCNGCGGGNTGGT; DNA, [I] at 9, 15, backbone and methylation of C not given here) [AS107-I, reference compound]” the “inhibiting mRNA expression, semi-quantitative PCR” value [5] was “not effective”.

For “5′-ACTCATATTC ATAGGGTG-3′ (antisense ACTCATATTCATAGGGTG; DNA, all phosphorothioate, methylation of C not given here) [ASA4]”, the “inhibition of recruitment of eosinophils” value (rat model of asthma [1]) was 84%, the lymphocyte recruitment (rat model of asthma [1]; lavage after 15 hours) was “significant decrease” and the macrophage recruitment (rat model of asthma [1]; lavage after 15 hours) was “strong trends for decreases”. For the same molecule, the neutrophil recruitment (rat model of asthma [1]; lavage after 15 hours) was “strong trends for decreases” and the “inhibition of the eosinophil influx that occurs after antigen challenge” value (rat model of asthma [6]) was “inhibit the eosinophil influx”.

In the case of “5′-TGGCACTTTAGGTGGCTG-3′ (phosphorothioate backbone, further chemistry not given here) [AS141]”, the “airway responsiveness to leukotriene D4” value (rat model of asthma [4]) is reported as “decreased significantly”, the lymphocyte recruitment (rat model of asthma [1]; lavage after 15 hours) is reported as “significant decrease” and the macrophage recruitment (rat model of asthma [1]; lavage after 15 hours) is reported as “significant decrease”. For the same molecule, the neutrophil recruitment (rat model of asthma [1]; lavage after 15 hours) was “strong trends for decreases”, the recruitment of eosinophils (rat model of asthma [1]; lavage after 15 hours) was “effectively inhibited” and the “inhibition of the eosinophil influx that occurs after antigen challenge” value (rat model of asthma [6]) was “inhibit the eosinophil influx”.
